Like-named read-outs stand apart in the source and are kept apart here.
Columns and labels:
[1] = system: IL-23-stimulated Kit225 T cells with STAT-dependent luciferase reporter; experiment: Kit225 T cell assay, STAT-dependent luciferase reporter, IL-23 stimulated; format: cell-based, human; details: read-out: IL-23 Kit225 Reporter, LE (IC50)
Experimental: (§1) Kit225 T cells with a stably-integrated STAT-dependent luciferase reporter were plated in RPMI (GIBCO) containing 10% heat-inactivated FBS (GIBCO) and 100 U/mL PenStrep (GIBCO). The cells were then stimulated with either 20 ng/mL human recombinant IL-23 or 200 U/mL human recombinant IFNα (PBL InterferonSource) for 5-6 hours. Luciferase expression was measured using the STEADY-GLO® Luciferase Assay System (PROMEGA®) according to the manufacturer's instructions.

[2] = system: IFNα-stimulated Kit225 T cells with STAT-dependent luciferase reporter; experiment: Kit225 T cell assay, STAT-dependent luciferase reporter, IFNα stimulated; format: cell-based, human; details: 5-6 hours, read-out: IFNa Kit225 Reporter, LE (IC50)
Experimental: as §1

[3] = 20 ng/mL human recombinant IL-23, 5-6 hours
[4] = 200 U/mL human recombinant IFNα
[5] = Homo sapiens, KIT225, 20 ng/mL human recombinant IL-23, 5-6 hours
[6] = Homo sapiens, KIT225, 200 U/mL human recombinant IFNα

| IC50 [1, 3] | IC50 [2, 4] | IC50 [1, 5] | IC50 [2, 6] | Compound |
| --- | --- | --- | --- | --- |
| 0.03 µM | 0.02 µM | – | – | CNc1cc(Nc2cc(F)cn(-c3ccccn3)c2=O)nn2c(C(=O)N[C@@H]3C[C@@H]3F)cnc12 [Example 151] |
| 0.23 µM | 0.42 µM | – | – | CNc1cc(Nc2cccn(C(C)C)c2=O)nn2c(C(=O)NC3CC3)cnc12 [Example 213] |
| 0.66 µM | 0.45 µM | – | – | CNc1cc(Nc2cccn(-c3ccc(C(C)(C)O)cc3)c2=O)nn2c(C(=O)NC3(C#N)CC3)cnc12 [Example 27] |
| 0.38 µM | 0.13 µM | – | – | CNc1cc(Nc2cccn(C3CC3)c2=O)nn2c(C(=O)NC3CC3)cnc12 [Example 44] |
| 0.21 µM | 0.1 µM | – | – | CNc1cc(Nc2cccn(C3CCC3)c2=O)nn2c(C(=O)NC3CC3)cnc12 [Example 228] |
| 0.04 µM | 0.03 µM | – | – | CCCc1ccc(-n2cccc(Nc3cc(NC)c4ncc(C(=O)N[C@@H]5C[C@@H]5F)n4n3)c2=O)nn1 [Example 100] |
| – | – | 0.67 µM | 0.38 µM | CNc1cc(Nc2ccnn(-c3ccccc3)c2=O)nn2c(C(=O)NC3CCC3)cnc12 [Example 8, N-Cyclobutyl-8-(methylamino)-6-((3-oxo-2-phenyl-2,3-dihydropyridazin-4-yl)amino)imidazo[1,2-b]pyridazine-3-carboxamide] |
| 0.72 µM | 0.28 µM | – | – | CCC(CC)NC(=O)c1cnc2c(NC)cc(Nc3cccn(-c4ccc(C)nn4)c3=O)nn12 [Example 233] |
| 0.39 µM | 0.2 µM | – | – | CNc1cc(Nc2cc(F)cn(C)c2=O)nn2c(C(=O)NCC3(CO)CC3)cnc12 [Example 30] |
| – | – | 0.12 µM | 0.04 µM | CNc1cc(Nc2cccn(C)c2=O)nn2c(C(=O)NCC(C)(C)CO)cnc12 [Example 9, N-(3-Hydroxy-2,2-dimethylpropyl)-6-((1-methyl-2-oxo-1,2-dihydropyridin-3-yl)amino)-8-(methylamino)imidazo[1,2-b]pyridazine-3-carboxamide] |
| 0.16 µM | 0.04 µM | – | – | CNc1cc(Nc2ccnn(-c3cccc(C#N)c3)c2=O)nn2c(C(=O)N[C@@H]3C[C@@H]3F)cnc12 [Example 196] |
| 0.14 µM | 0.08 µM | – | – | CNc1cc(Nc2cccn(-c3cccc(F)n3)c2=O)nn2c(C(=O)NC3CC3)cnc12 [Example 144] |
| 0.08 µM | 0.06 µM | – | – | CNc1cc(Nc2cccn(-c3ccccc3F)c2=O)nn2c(C(=O)NC3(C#N)CC3)cnc12 [Example 156] |
| 0.34 µM | 0.2 µM | – | – | CNc1cc(Nc2cccn(-c3ccc(F)cc3)c2=O)nn2c(C(=O)NCC3(CO)CC3)cnc12 [Example 29] |
| – | – | 0.14 µM | 0.09 µM | O=C(N[C@H]1C[C@@H]1F)c1cnc2c3c(c(Nc4cccn(-c5ccccn5)c4=O)nn12)OCCN3 [Example 241] |
| 0.59 µM | 0.29 µM | – | – | CNc1cc(Nc2cc(F)cn(CC(C)(C)O)c2=O)nn2c(C(=O)NC3CC3)cnc12 [Example 121] |
| 0.18 µM | 0.33 µM | – | – | CNc1cc(Nc2cccn(C)c2=O)nn2c(C(=O)NC(C)C)cnc12 [Example 209] |
| – | – | 0.013 µM | 0.0098 µM | CNc1cc(Nc2cccn(-c3cnc(C(=O)N(C)C)cn3)c2=O)nn2c(C(=O)N[C@@H]3C[C@@H]3F)cnc12 [Example 256, 6-((1-(5-(Dimethylcarbamoyl)pyrazin-2-yl)-2-oxo-1,2-dihydropyridin-3-yl)amino)-N-((1R,2S)-2-fluorocyclopropyl)-8-(methylamino)imidazo[1,2-b]pyridazine-3-carboxamide] |
| 0.16 µM | 0.18 µM | – | – | CNc1cc(Nc2cccn(-c3ccc(C(C)O)cc3)c2=O)nn2c(C(=O)N[C@@H]3C[C@@H]3F)cnc12 (stereo partly drawn) [Example 141] |
| 0.29 µM | 0.13 µM | – | – | CNc1cc(Nc2cccn(C3CCOC3)c2=O)nn2c(C(=O)NC3CCCC3)cnc12 (stereo not drawn) [Example 222] |
| – | – | 0.18 µM | 0.45 µM | CNc1cc(Nc2cccn(-c3ccc(CO)cn3)c2=O)nn2c(C(=O)NC3CC3)cnc12 [compound 253] |
| 0.33 µM | 0.4 µM | – | – | CNc1cc(Nc2cccn(-c3ccc(C(F)F)cc3)c2=O)nn2c(C(=O)NCC(C)(CO)CO)cnc12 [Example 19] |
| 0.42 µM | 0.62 µM | – | – | CNc1cc(Nc2cc(C)cn(-c3ccc(C)nn3)c2=O)nn2c(C(=O)NC3CCC3)cnc12 [Example 92] |
| 0.3 µM | 0.52 µM | – | – | CNc1cc(Nc2cccn(C)c2=O)nn2c(C(=O)N[C@@H]3CCOC3)cnc12 [Example 57] |
| 0.21 µM | 0.12 µM | – | – | CNc1cc(Nc2cncn(-c3ccccn3)c2=O)nn2c(C(=O)NC3CCC3)cnc12 [Example 71] |
| 0.57 µM | 0.46 µM | – | – | CNc1cc(Nc2cccn(-c3ccc(F)cc3)c2=O)nn2c(C(=O)NCC(C)(CO)CO)cnc12 [Example 14] |
| 0.21 µM | 0.13 µM | – | – | CNc1cc(Nc2cccn(-c3ncccn3)c2=O)nn2c(C(=O)NC3CCC3)cnc12 [Example 52] |

| IC50 [1, 3] | IC50 [2, 4] | IC50 [1, 5] | IC50 [2, 6] | Compound |
| --- | --- | --- | --- | --- |
| 0.06 µM | 0.03 µM | – | – | CNc1cc(Nc2cccn(-c3ccon3)c2=O)nn2c(C(=O)NC3CCC3)cnc12 [Example 56] |
| 0.85 µM | 0.35 µM | – | – | CNc1cc(Nc2cccn(-c3ccccn3)c2=O)nn2c(C(=O)NC3CCC(O)C3(C)C)cnc12 (stereo not drawn) [Example 236] |
| 0.03 µM | 0.02 µM | – | – | CNc1cc(Nc2cccn(-c3cc(C)on3)c2=O)nn2c(C(=O)NC3CCC3)cnc12 [Example 157] |
| 0.56 µM | 0.91 µM | – | – | CNc1cc(Nc2cccn(-c3ccc(C)nn3)c2=O)nn2c(C(=O)NC(C)CC(C)C)cnc12 (stereo not drawn) [Example 235] |
| 0.04 µM | 0.05 µM | – | – | CNc1cc(Nc2cc(F)cn(-c3ccc(C)nn3)c2=O)nn2c(C(=O)NC3CC3)cnc12 [Example 94] |
| 0.06 µM | 0.02 µM | – | – | CNc1cc(Nc2cccn(-c3cnc(C)cn3)c2=O)nn2c(C(=O)N[C@@H]3C[C@@H]3F)cnc12 [Example 103] |
| 0.21 µM | 0.14 µM | – | – | CNc1cc(Nc2cccn(-c3ncc(F)cn3)c2=O)nn2c(C(=O)NC3CC3)cnc12 [Example 171] |
| 1.18 µM | 0.24 µM | – | – | CNc1cc(Nc2cccn(-c3nc4ccccc4[nH]3)c2=O)nn2c(C(=O)NC3CC3)cnc12 [Example 223] |
| 0.13 µM | 0.08 µM | – | – | CNc1cc(Nc2cccn(-c3ccc(C(F)F)cc3)c2=O)nn2c(C(=O)NC3(C#N)CC3)cnc12 [Example 20] |
| 0.19 µM | 0.11 µM | – | – | CNc1cc(Nc2cccn(-c3ccc(C)nn3)c2=O)nn2c(C(=O)NC(C)C)cnc12 [Example 97] |
| 0.48 µM | 0.15 µM | – | – | CNc1cc(Nc2cccn(-c3ccc(C(F)F)cc3)c2=O)nn2c(C(=O)NC3CC3)cnc12 [Example 18] |
| 0.44 µM | 0.24 µM | – | – | CNc1cc(Nc2cccn(-c3ccncc3)c2=O)nn2c(C(=O)NC3CC3)cnc12 [Example 128] |
| 0.48 µM | 0.27 µM | – | – | CCNc1cc(Nc2cccn(C)c2=O)nn2c(C(=O)NC3CCC3)cnc12 [Example 232] |
| 0.15 µM | 0.04 µM | – | – | CNc1cc(Nc2cc(F)cn(C)c2=O)nn2c(C(=O)NCC(C)(C)CO)cnc12 [Example 24] |
| – | – | 0.09 µM | 0.04 µM | CNc1cc(Nc2cccn(-c3ccc(C(=O)N4CCC4)cn3)c2=O)nn2c(C(=O)N[C@@H]3C[C@@H]3F)cnc12 [compound 264] |
| 0.18 µM | 0.12 µM | – | – | CNc1cc(Nc2cccn(-c3cccc(C(C)(C)O)n3)c2=O)nn2c(C(=O)NC3CC3)cnc12 [Example 81] |
| 0.19 µM | 0.2 µM | – | – | CNc1cc(Nc2cccn(-c3cnn(C)c3)c2=O)nn2c(C(=O)NC3CC3)cnc12 [Example 203] |
| 0.28 µM | 0.24 µM | – | – | CNc1cc(Nc2cccn(-c3ccc(C(C)O)cc3)c2=O)nn2c(C(=O)NC3CC3)cnc12 (stereo not drawn) [Example 135] |
| – | – | 0.0308 µM | 0.028 µM | CNc1cc(Nc2cccn(-c3cnc(C(C)(C)O)cn3)c2=O)nn2c(C(=O)N[C@@H]3C[C@@H]3F)cnc12 [Example 255, N-((1R,2S)-2-Fluorocyclopropyl)-6-((1-(5-(2-hydroxypropan-2-yl)pyrazin-2-yl)-2-oxo-1,2-dihydropyridin-3-yl)amino)-8-(methylamino)imidazo[1,2-b]pyridazine-3-carboxamide] |
| 0.07 µM | 0.14 µM | – | – | CCNC(=O)c1cnc2c(NC)cc(Nc3cccn(-c4cccc(F)n4)c3=O)nn12 [Example 67] |
| 0.05 µM | 0.04 µM | – | – | CNc1cc(Nc2cccn(-c3ncc(F)cn3)c2=O)nn2c(C(=O)N[C@@H]3C[C@@H]3F)cnc12 [Example 174] |
| 0.43 µM | 0.13 µM | – | – | CNc1cc(Nc2cccn(-c3ccn(C4CC4)n3)c2=O)nn2c(C(=O)NC3CC3)cnc12 [Example 165] |
| 0.62 µM | 0.37 µM | – | – | CNc1cc(Nc2cccn(C3CCC(O)CC3)c2=O)nn2c(C(=O)NC3CC3)cnc12 (stereo not drawn) [Example 227] |
| – | – | 0.06 µM | 0.21 µM | O=C(NC1CC1)c1cnc2c3c(c(Nc4cccn(-c5ccccn5)c4=O)nn12)OCCN3 [Example 240] |
| 0.19 µM | 0.3 µM | – | – | CNc1cc(Nc2cccn(C)c2=O)nn2c(C(=O)NC3CCCCC3C)cnc12 (stereo not drawn) [Example 215] |
| 0.19 µM | 0.37 µM | – | – | CNc1cc(Nc2cccn(-c3ncccn3)c2=O)nn2c(C(=O)NC3CCCC3)cnc12 [Example 170] |
| 0.07 µM | 0.1 µM | – | – | CNc1cc(Nc2cccn(-c3ccc(OC)nc3)c2=O)nn2c(C(=O)NC3CC3)cnc12 [Example 204] |

— US10273237B2, “Imidazopyridazine compounds useful as modulators of IL-12, IL-23 and/or IFN-α responses” (BRISTOL-MYERS SQUIBB COMPANY, priority 2013, dated 2019)
